In patent US10765755B1, “Preparation and characterization of methylene blue nanoparticles for Alzheimer's disease and other tauopathies” (University of South Florida, priority 2013, dated 2020):

Key:
[1] = tested on: co-culture of rat brain endothelial 4 (RBE4) and C6 astrocytoma cells; assay: In vitro blood-brain barrier Transwell permeation assay; format: in vitro ADME; settings: 10 μM, 0, 3, 6 and 24 hours, UV 600 nm, n=3
Description: Transwell Permeable Supports (CORNING) with a 0.4 μm pore size were purchased to investigate the permeability of MB nanoparticles across the blood-brain barrier (BBB) (FIG. 5). Each side was coated with 0.1% rat tail collagen I solution diluted from the purchased 100 mg solution (Collagen I, rat tail, 100 mg, BD BIOSCIENCES), left under the hood to adhere to the support for 1 hour, and washed with […] of 1×PBS after aspiration of the remaining collagen solution. The media used was a 1:1 solution of Ham's F10:MEM media (CELLGRO) supplemented with 10% fetal bovine serum (FBS) (INVITROGEN), 1% penicillin and streptomycin (CELLGRO), 0.4 mL of 1 ng/mL human recombinant diluted basic fibroblast growth factor (bFGF) (BD Biosciences), 5 mL of HEPES buffer (FISHER), and 2 mL of a 200 mM stock of L-glutamine (MEDIATECH). 1.5 mL of media was added surrounding the support, and 0.5 mL was added inside the support. This was left to incubate in the incubator (37° C. and 5% CO2) for 24 hours.
After 24 hours, the media was aspirated from the plates. […]
Subsequently, the media was aspirated and replaced with equal amounts of 1% FBS experimental media. […] The samples were quantified by UV spectrometry in the SYNERGY H4 plate reader (BIOTEK INSTRUMENTS Inc.) at a wavelength of 600 nm. Data was quantified in triplicates and averaged (n=3).

[2] = tested on: human Tau stably over-expressed in HeLa cells; assay: Tau levels by immunoblotting in HeLa cells overexpressing tau; format: cell-based; settings: HeLa cells over-expressing tau, 5 μM and 10 μM, 24 hours, immunoblot
Description: (§1) Endogenous Tau expressing human neuroblastoma SHSY5Y cells and Hela cells stably overexpressing wild-type human tau were maintained in OptiMEM media supplemented with fetal bovine serum and antibiotic solution as described previously. In six-well plates, cells were treated with control or MB-NPs for 24 hours. Cells were harvested and processed for immunoblotting as described previously.
(§2) To test the functionality of newly generated NPs, two different cell culture-based AD models were utilized. Endogenously tau expressing SHSHY neuronal cells and stably tau overexpressing HeLa cells were treated with 5 μM and 10 μM of MB-NPs, coated MB-NPs, control NPs, vehicle, and/or drug MB-solution for 24 hours. Cells were harvested, and samples were analyzed for tau levels by immunoblotting (FIG. 4).

[3] = tested on: endogenous Tau in human neuroblastoma SHSY-5Y cells; assay: Tau levels by immunoblotting in SHSY-5Y cells; format: cell-based; settings: 5 μM and 10 μM, 24 hours, immunoblot
Description: as §1, §2

CN(C)c1ccc2nc3ccc(=[N+](C)C)cc-3sc2c1 [MB solution, Methylene blue]
Permeation across simulated BBB (in words) [1]: remained relatively constant | Reduction in tau level (in words) [2]: reduce tau levels slightly higher at 10 μM compared to 5 μM | Reduction in tau level (in words) [3]: reduce tau levels slightly higher at 10 μM compared to 5 μM
